Test in all cases: relative viability (nuclei count vs DMSO), 5 days (fraction); higher = more cells survive
Compound in the assay “Palbociclib + Trametinib”: CC(=O)c1c(C)c2cnc(Nc3ccc(N4CCNCC4)cn3)nc2n(C2CCCC2)c1=O [Palbociclib] + CC(=O)Nc1cccc(-n2c(=O)n(C3CC3)c(=O)c3c(Nc4ccc(I)cc4F)n(C)c(=O)c(C)c32)c1 [Trametinib] (partner 0.02 µM)
A digest of the protocol:
(§1)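 Nuclei were stained with Hoechst during a one-step fixation (final 0.05% Triton X-100, 1% formaldehyde, 1 ug/ml Hoechst) carried out 5 days after dosing, then counted on 4× images. The cells, lung cancer lines in 1536-well plates, had been dosed by pin tool the day after seeding with one drug alone or a fixed anchor-drug dose plus five library-drug doses (not always all listed) in √10 steps. Relative viability is the nuclei count in treated wells divided by that in vehicle wells, and each value is the median of duplicate plates.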

Compound in the assay “Palbociclib + Navitoclax”: CC(=O)c1c(C)c2cnc(Nc3ccc(N4CCNCC4)cn3)nc2n(C2CCCC2)c1=O [Palbociclib] + CC1(C)CCC(c2ccc(Cl)cc2)=C(CN2CCN(c3ccc(C(=O)NS(=O)(=O)c4ccc(N[C@H](CCN5CCOCC5)CSc5ccccc5)c(S(=O)(=O)C(F)(F)F)c4)cc3)CC2)C1 [Navitoclax] (partner 0.5 µM)
A digest of the protocol:
as §1

Compound in the assay “Palbociclib + Luminespib”: CC(=O)c1c(C)c2cnc(Nc3ccc(N4CCNCC4)cn3)nc2n(C2CCCC2)c1=O [Palbociclib] + CCNC(=O)c1noc(-c2cc(C(C)C)c(O)cc2O)c1-c1ccc(CN2CCOCC2)cc1 [Luminespib] (partner 0.01 µM)
A digest of the protocol:
as §1

Compound in the assay “Palbociclib + Phenformin”: CC(=O)c1c(C)c2cnc(Nc3ccc(N4CCNCC4)cn3)nc2n(C2CCCC2)c1=O [Palbociclib] + N=C(N)NC(=N)NCCc1ccccc1 [Phenformin] (partner 250 µM)
A digest of the protocol: as §1

For the cell line NCI-H596, the relative viability with Palbociclib + Trametinib (first compound 0.01 µM) came out at 0.793; with Palbociclib + Trametinib (first compound 0.03162 µM) it was 0.632; with Palbociclib + Trametinib (first compound 0.1 µM), 0.875; in the assay with Palbociclib + Trametinib (first compound 0.3162 µM), 0.757; in the assay with Palbociclib + Trametinib (first compound 1 µM), 0.954; with Palbociclib + Navitoclax (first compound 0.01 µM), 0.99. Moreover, the relative viability in the assay with Palbociclib + Navitoclax (first compound 0.03162 µM) was 0.945; in the assay with Palbociclib + Navitoclax (first compound 0.1 µM) it was 0.976; in the assay with Palbociclib + Navitoclax (first compound 0.3162 µM), 0.949; with Palbociclib + Navitoclax (first compound 1 µM) it was 1.1; with Palbociclib + Luminespib (first compound 0.01 µM), 0.91; in the assay with Palbociclib + Luminespib (first compound 0.1 µM), 0.968. For the same cell line, the relative viability with Palbociclib + Luminespib (first compound 0.3162 µM) turned out to be 0.958; in the assay with Palbociclib + Luminespib (first compound 1 µM), 1.04; with Palbociclib + Phenformin (first compound 0.01 µM), 0.982; with Palbociclib + Phenformin (first compound 0.1 µM), 0.757; in the assay with Palbociclib + Phenformin (first compound 0.3162 µM), 0.712; with Palbociclib + Phenformin (first compound 1 µM), 0.673.

Take NCI-H2170: the relative viability with Palbociclib + Trametinib (first compound 0.01 µM) was 0.968; in the assay with Palbociclib + Trametinib (first compound 0.03162 µM) it was 0.838; in the assay with Palbociclib + Trametinib (first compound 0.1 µM), 0.889; with Palbociclib + Trametinib (first compound 0.3162 µM), 0.882; with Palbociclib + Trametinib (first compound 1 µM) it was 0.721; in the assay with Palbociclib + Navitoclax (first compound 0.01 µM), 0.624. The relative viability with Palbociclib + Navitoclax (first compound 0.03162 µM) is 0.552; in the assay with Palbociclib + Navitoclax (first compound 0.1 µM) it was 0.74; with Palbociclib + Navitoclax (first compound 0.3162 µM), 0.578; in the assay with Palbociclib + Navitoclax (first compound 1 µM), 0.549; with Palbociclib + Luminespib (first compound 0.01 µM) it was 0.536; with Palbociclib + Luminespib (first compound 0.03162 µM) it was 0.536. In addition, the relative viability with Palbociclib + Luminespib (first compound 0.1 µM) stood at 0.558; with Palbociclib + Luminespib (first compound 0.3162 µM), 0.707; with Palbociclib + Luminespib (first compound 1 µM), 0.536; with Palbociclib + Phenformin (first compound 0.01 µM), 0.418; with Palbociclib + Phenformin (first compound 0.03162 µM), 0.352; with Palbociclib + Phenformin (first compound 0.1 µM), 0.351. Besides, the values for the relative viability in the assay with Palbociclib + Phenformin (first compound 0.3162 µM) and with Palbociclib + Phenformin (first compound 1 µM) were 0.34 and 0.304, respectively.

Regarding NCI-H2405, the relative viability with Palbociclib + Trametinib (first compound 0.01 µM) was 0.614; with Palbociclib + Trametinib (first compound 0.03162 µM), 0.509; in the assay with Palbociclib + Trametinib (first compound 0.1 µM) it was 0.531; with Palbociclib + Trametinib (first compound 0.3162 µM), 0.555; in the assay with Palbociclib + Trametinib (first compound 1 µM), 0.447; with Palbociclib + Navitoclax (first compound 0.01 µM) it was 0.866. The relative viability in the assay with Palbociclib + Navitoclax (first compound 0.1 µM) stood at 0.574; in the assay with Palbociclib + Navitoclax (first compound 0.3162 µM), 0.729; with Palbociclib + Navitoclax (first compound 1 µM) it was 0.722; with Palbociclib + Luminespib (first compound 0.01 µM), 0.818; in the assay with Palbociclib + Luminespib (first compound 0.03162 µM), 0.893; with Palbociclib + Luminespib (first compound 0.1 µM), 0.613. Besides, the relative viability was 0.843 in the assay with Palbociclib + Luminespib (first compound 0.3162 µM); 0.534 with Palbociclib + Luminespib (first compound 1 µM); 0.387 in the assay with Palbociclib + Phenformin (first compound 0.01 µM); 0.344 in the assay with Palbociclib + Phenformin (first compound 0.03162 µM); 0.327 in the assay with Palbociclib + Phenformin (first compound 0.1 µM); 0.36 in the assay with Palbociclib + Phenformin (first compound 0.3162 µM). Besides, the relative viability with Palbociclib + Phenformin (first compound 1 µM) was found to be 0.317.

Consider HCC-366, for which the relative viability with Palbociclib + Trametinib (first compound 0.01 µM) was 0.466; in the assay with Palbociclib + Trametinib (first compound 0.1 µM), 0.41; with Palbociclib + Trametinib (first compound 0.3162 µM), 0.298; in the assay with Palbociclib + Trametinib (first compound 1 µM) it was 0.24; with Palbociclib + Navitoclax (first compound 0.01 µM), 1.05; in the assay with Palbociclib + Navitoclax (first compound 0.1 µM) it was 0.996. Further, the relative viability in the assay with Palbociclib + Navitoclax (first compound 0.3162 µM) turned out to be 0.877; in the assay with Palbociclib + Navitoclax (first compound 1 µM), 0.803; in the assay with Palbociclib + Phenformin (first compound 0.01 µM), 0.626; with Palbociclib + Phenformin (first compound 0.1 µM), 0.645; with Palbociclib + Phenformin (first compound 0.3162 µM), 0.427; with Palbociclib + Phenformin (first compound 1 µM), 0.396.

As for NCI-H1975, the relative viability with Palbociclib + Trametinib (first compound 0.01 µM) came to 0.402; with Palbociclib + Trametinib (first compound 0.03162 µM), 0.372; in the assay with Palbociclib + Trametinib (first compound 0.1 µM), 0.309; in the assay with Palbociclib + Trametinib (first compound 0.3162 µM), 0.353; with Palbociclib + Trametinib (first compound 1 µM), 0.236; with Palbociclib + Navitoclax (first compound 0.01 µM), 1.2. For the same cell line, the relative viability with Palbociclib + Navitoclax (first compound 0.03162 µM) was determined as 1.02; with Palbociclib + Navitoclax (first compound 0.1 µM), 1.08; in the assay with Palbociclib + Navitoclax (first compound 0.3162 µM) it was 0.918; with Palbociclib + Navitoclax (first compound 1 µM), 0.877; in the assay with Palbociclib + Luminespib (first compound 0.01 µM), 0.161; in the assay with Palbociclib + Luminespib (first compound 0.03162 µM), 0.189. In addition, the relative viability in the assay with Palbociclib + Luminespib (first compound 0.1 µM) worked out at 0.102; with Palbociclib + Luminespib (first compound 0.3162 µM), 0.198; with Palbociclib + Luminespib (first compound 1 µM), 0.193; with Palbociclib + Phenformin (first compound 0.01 µM), 0.388; with Palbociclib + Phenformin (first compound 0.03162 µM), 0.384; with Palbociclib + Phenformin (first compound 0.1 µM) it was 0.325. For the same cell line, the relative viability was 0.273 with Palbociclib + Phenformin (first compound 0.3162 µM) and 0.3 with Palbociclib + Phenformin (first compound 1 µM).

Consider NCI-H1755, for which the relative viability in the assay with Palbociclib + Trametinib (first compound 0.01 µM) came out at 0.804; with Palbociclib + Trametinib (first compound 0.03162 µM), 0.746; with Palbociclib + Trametinib (first compound 0.1 µM), 0.688; with Palbociclib + Trametinib (first compound 0.3162 µM), 0.719; with Palbociclib + Trametinib (first compound 1 µM), 0.597; with Palbociclib + Navitoclax (first compound 0.01 µM), 1.03. In addition, the relative viability with Palbociclib + Navitoclax (first compound 0.03162 µM) came out at 0.974; with Palbociclib + Navitoclax (first compound 0.1 µM), 0.876; with Palbociclib + Navitoclax (first compound 0.3162 µM) it was 0.818; with Palbociclib + Navitoclax (first compound 1 µM) it was 0.715; with Palbociclib + Luminespib (first compound 0.01 µM) it was 0.266; with Palbociclib + Luminespib (first compound 0.03162 µM), 0.297. Moreover, the relative viability in the assay with Palbociclib + Luminespib (first compound 0.1 µM) was determined as 0.451; with Palbociclib + Luminespib (first compound 0.3162 µM) it was 0.479; with Palbociclib + Luminespib (first compound 1 µM) it was 0.284; with Palbociclib + Phenformin (first compound 0.01 µM), 0.626; in the assay with Palbociclib + Phenformin (first compound 0.03162 µM) it was 0.433; in the assay with Palbociclib + Phenformin (first compound 0.1 µM) it was 0.495. Further, the relative viability in the assay with Palbociclib + Phenformin (first compound 0.3162 µM) was determined as 0.53; with Palbociclib + Phenformin (first compound 1 µM), 0.405.

Regarding COR-L23, the relative viability with Palbociclib + Trametinib (first compound 0.01 µM) is 0.666; with Palbociclib + Trametinib (first compound 0.03162 µM), 0.521; with Palbociclib + Trametinib (first compound 0.1 µM) it was 0.362; in the assay with Palbociclib + Trametinib (first compound 0.3162 µM), 0.434; with Palbociclib + Trametinib (first compound 1 µM), 0.209; with Palbociclib + Navitoclax (first compound 0.01 µM), 0.977. Moreover, the relative viability with Palbociclib + Navitoclax (first compound 0.03162 µM) is 0.759; with Palbociclib + Navitoclax (first compound 0.1 µM) it was 0.681; with Palbociclib + Navitoclax (first compound 0.3162 µM), 0.544; in the assay with Palbociclib + Navitoclax (first compound 1 µM) it was 0.477; with Palbociclib + Luminespib (first compound 0.01 µM) it was 0.647; in the assay with Palbociclib + Luminespib (first compound 0.03162 µM), 0.515. In addition, the relative viability with Palbociclib + Luminespib (first compound 0.1 µM) was 0.511; in the assay with Palbociclib + Luminespib (first compound 0.3162 µM), 0.429; with Palbociclib + Luminespib (first compound 1 µM) it was 0.434; in the assay with Palbociclib + Phenformin (first compound 0.01 µM), 0.438; with Palbociclib + Phenformin (first compound 0.03162 µM), 0.37; with Palbociclib + Phenformin (first compound 0.1 µM), 0.304. For the same cell line, the relative viability with Palbociclib + Phenformin (first compound 0.3162 µM) amounted to 0.345; with Palbociclib + Phenformin (first compound 1 µM), 0.263.

Turning to PC-3 [JPC-3], the relative viability with Palbociclib + Trametinib (first compound 0.01 µM) worked out at 0.657; in the assay with Palbociclib + Trametinib (first compound 0.03162 µM), 0.634; with Palbociclib + Trametinib (first compound 0.1 µM), 0.534; with Palbociclib + Trametinib (first compound 0.3162 µM), 0.703; in the assay with Palbociclib + Trametinib (first compound 1 µM), 0.597; with Palbociclib + Navitoclax (first compound 0.01 µM), 0.769. Also, the relative viability with Palbociclib + Navitoclax (first compound 0.03162 µM) stood at 0.778; with Palbociclib + Navitoclax (first compound 0.1 µM), 0.66; in the assay with Palbociclib + Navitoclax (first compound 0.3162 µM), 0.721; in the assay with Palbociclib + Navitoclax (first compound 1 µM) it was 0.635; in the assay with Palbociclib + Luminespib (first compound 0.01 µM) it was 0.708; with Palbociclib + Luminespib (first compound 0.03162 µM), 0.743. In addition, the relative viability came to 0.649 with Palbociclib + Luminespib (first compound 0.1 µM); 0.661 in the assay with Palbociclib + Luminespib (first compound 0.3162 µM); 0.53 with Palbociclib + Luminespib (first compound 1 µM); 0.514 with Palbociclib + Phenformin (first compound 0.01 µM); 0.464 with Palbociclib + Phenformin (first compound 0.03162 µM); 0.459 in the assay with Palbociclib + Phenformin (first compound 0.1 µM). The relative viability with Palbociclib + Phenformin (first compound 0.3162 µM) was determined as 0.445; with Palbociclib + Phenformin (first compound 1 µM), 0.378.

For the origin of these results see the supplement of paper PMC10307832.
